Data taken from patent US20080188530A1 (priority 2004, published 2008).
Like-named read-outs stand apart in the source and are kept apart here.

Key:
Phytophthora infestans = type: in vivo; conditions: tomato plants, infected 5 days after spraying, rated after 6 days, efficacy in % of untreated control (Abbot)
[1] = system: Pyrenophora [syn. Drechslera] teres; assay: Activity against net blotch of barley caused by Pyrenophora teres (protective spray on potted barley seedlings); type: in vivo; conditions: barley cv. Igri, inoculated 5 days after spraying, rated after 6 days, efficacy in % of untreated control (Abbot)

| Compound | Observed efficacy (%) (Phytophthora infestans; 16 ppm) | Observed efficacy (%) ([1]; 16 ppm) | Observed efficacy (%) ([1]; 63 ppm) | Observed efficacy (%) (Phytophthora infestans; 63 ppm) |
| --- | --- | --- | --- | --- |
| O=C(Nc1ccccc1-c1ccc(Cl)cc1)c1cccnc1Cl [boscalid, 2-chloro-N-(4′-chlorobiphenyl-2-yl)nicotinamide] | 0% | – | – | – |
| COCC(=O)N(c1c(C)cccc1C)C(C)C(=O)OC (racemic) [metalaxyl, methyl N-(methoxyacetyl)-N-(2,6-xylyl)-DL-alaninate] | – | 0% | – | – |
| CO/C=C(/C(=O)OC)c1ccccc1CO/N=C(C)/C=C/c1ccc(Cl)cc1 [enestroburin, methyl 2-{2-[3-(4-chlorophenyl)-1-methylallylideneaminooxymethyl]phenyl}-3-methoxyacrylate] | 0% | 44% | 56% | 11% |
